The source made the active and inactive calls. The calls are words filed in the database; no cut-off is given here.

One test has as its system HepG2. In words: Cytotoxicity against human HepG2 cells after 48 hrs by MTT assay. The note with it: for IC50: HepG2, 48 h. It is filed as functional, cell-based.
In another test the test system is HL-60. As to the kind of experiment: Cytotoxicity against human HL60 cells after 48 hrs by MTT assay. It is filed as functional, cell-based. The following applies: for IC50: HL-60, 48 h. For orientation: Tetrazolium assays rely on reduction of a dye to a coloured formazan, in cell work by metabolically active cells.
The target in test [1] is T1, NAD-dependent protein deacetylase sirtuin-1 (Homo sapiens) (UniProt Q96EB6).
T1 sequence (whole entry): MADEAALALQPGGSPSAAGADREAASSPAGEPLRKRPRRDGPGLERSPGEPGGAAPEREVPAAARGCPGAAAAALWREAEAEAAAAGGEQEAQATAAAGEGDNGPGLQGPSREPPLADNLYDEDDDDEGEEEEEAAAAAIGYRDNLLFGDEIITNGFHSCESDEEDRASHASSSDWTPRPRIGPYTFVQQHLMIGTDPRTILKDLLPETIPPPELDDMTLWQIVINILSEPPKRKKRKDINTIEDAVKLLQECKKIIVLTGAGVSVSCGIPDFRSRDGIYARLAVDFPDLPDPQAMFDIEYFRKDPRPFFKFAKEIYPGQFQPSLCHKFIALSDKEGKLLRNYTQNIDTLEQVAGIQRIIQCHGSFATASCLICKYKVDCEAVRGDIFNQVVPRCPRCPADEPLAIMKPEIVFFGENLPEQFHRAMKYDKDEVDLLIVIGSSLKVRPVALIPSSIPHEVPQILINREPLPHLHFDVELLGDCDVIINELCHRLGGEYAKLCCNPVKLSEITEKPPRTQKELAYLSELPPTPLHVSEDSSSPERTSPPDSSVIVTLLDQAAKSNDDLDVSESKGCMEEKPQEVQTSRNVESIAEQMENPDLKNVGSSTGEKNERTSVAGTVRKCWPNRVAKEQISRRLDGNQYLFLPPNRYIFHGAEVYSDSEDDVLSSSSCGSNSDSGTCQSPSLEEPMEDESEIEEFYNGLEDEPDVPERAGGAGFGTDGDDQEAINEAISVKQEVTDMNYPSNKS
In words: Activation of SIRT1 (unknown origin) after 45 mins by NAD/NADH enzyme-based fluorometric assay.

Broadly, the IC50 is the point on the concentration scale where inhibition reaches its midpoint. Turning to `CCC1=C[C@@H]2CN(C1)Cc1c([nH]c3ccccc13)[C@@](C(=O)OC)(c1cc3c(cc1OC)N(C)[C@H]1[C@@](O)(C(=O)OC)[C@H](OC(C)=O)[C@]4(CC)C=CCN5CC[C@]31[C@@H]54)C2` [VINORELBINE], the IC50 in the test on HepG2 came out at 23.1 µM; with HL-60, 11.5 µM.

As to `CC(=O)OC[C@H]1O[C@@H](O[C@H]2C[C@]3(C)[C@H](C[C@@H](O)[C@@H]4[C@@H]([C@@](C)(O)CCC=C(C)C)CC[C@]43C)[C@@]3(C)CC[C@H](O)C(C)(C)[C@H]23)[C@H](O)[C@@H](O)[C@@H]1O`, the IC50 worked out at 169 µM with HepG2 and 128 µM in the test on HL-60. The result in test [1] was Active.

In the case of `CC(C)=CCC[C@@](C)(O)[C@H]1CC[C@]2(C)[C@@H]1[C@H](O)C[C@@H]1[C@@]3(C)CC[C@H](O)C(C)(C)[C@@H]3CC[C@]12C`, the IC50 in the test on HepG2 was found to be 69.1 µM; in the test with HL-60, 23.4 µM. The result in test [1] was Active.

In the case of `CC(C)=CC/C=C(\C)[C@H]1CC[C@]2(C)[C@@H]1[C@H](O)C[C@@H]1[C@@]3(C)CC[C@H](O[C@@H]4O[C@H](CO)[C@@H](O)[C@H](O)[C@H]4O)C(C)(C)[C@@H]3[C@@H](O)C[C@]12C`, the figures for the IC50 with HepG2 and in the test on HL-60 were 86.5 µM and 50.2 µM, respectively. For the same compound, the result in test [1] was Active.

As for `C=C(CCC=C(C)C)[C@H]1CC[C@]2(C)[C@@H]1[C@H](O)C[C@@H]1[C@@]3(C)CC[C@H](O)C(C)(C)[C@@H]3[C@@H](O)C[C@]12C`, the IC50 in the test on HepG2 was determined as 42.1 µM; in the test on HL-60 it was 18.3 µM. Besides, the outcome in test [1] was Active.

Take `CC(C)=CCC[C@](C)(O)[C@H]1CC[C@]2(C)[C@@H]1[C@H](O)C[C@@H]1[C@@]3(C)CC[C@H](O)C(C)(C)[C@@H]3[C@@H](O)C[C@]12C`: the IC50 with HepG2 worked out at 43.4 µM; in the test with HL-60 it was 22.8 µM. The outcome in test [1] was Active.

`C=C(CCC=C(C)C)[C@H]1CC[C@]2(C)[C@@H]1[C@H](O)C[C@@H]1[C@@]3(C)CC[C@H](O[C@@H]4O[C@H](CO)[C@@H](O)[C@H](O)[C@H]4O[C@@H]4O[C@H](CO)[C@@H](O)[C@H](O)[C@H]4O)C(C)(C)[C@@H]3CC[C@]12C` [GISENOSIDE RK1]: the IC50 with HepG2 was 79.8 µM; in the test on HL-60, 58.1 µM. Moreover, the outcome in test [1] was Active.

As to `CC(C)=CCC[C@](C)(O)[C@H]1CC[C@]2(C)[C@@H]1[C@H](O)C[C@@H]1[C@@]3(C)CC[C@H](O)C(C)(C)[C@@H]3[C@@H](O[C@@H]3O[C@H](CO)[C@@H](O)[C@H](O)[C@H]3O)C[C@]12C` [GINSENOSIDE RH1], the IC50 with HepG2 and in the test on HL-60 was above 200 µM throughout. In test [1], the result was Active.

For the compound `CC(C)=CCC[C@@](C)(O)[C@H]1CC[C@]2(C)[C@@H]1[C@H](O)C[C@@H]1[C@@]3(C)CC[C@H](O)C(C)(C)[C@@H]3[C@@H](O[C@@H]3O[C@H](CO)[C@@H](O)[C@H](O)[C@H]3O)C[C@]12C`, the IC50 in the test with HepG2 and in the test on HL-60 was above 200 µM throughout. Further, the outcome in test [1] was inactive.

For the compound `CC(C)=CCC[C@](C)(O)[C@H]1CC[C@]2(C)[C@@H]1[C@H](O)C[C@@H]1[C@@]3(C)CC[C@H](O)C(C)(C)[C@@H]3CC[C@]12C`, the IC50 in the test with HepG2 is 45.7 µM; in the test on HL-60, 15.5 µM. The result in test [1] was Active.

As to `CC(C)=CC/C=C(\C)[C@H]1CC[C@]2(C)[C@@H]1[C@H](O)C[C@@H]1[C@@]3(C)CC[C@H](O)C(C)(C)[C@@H]3[C@@H](O)C[C@]12C`, in the test with HepG2, the Activity entry is “Dose-dependent effect” and the IC50 came out at 24.3 µM. Also, in the test with HL-60, the Activity entry is “Dose-dependent effect” and the IC50 was found to be 10.3 µM. Also, in test [1], the outcome was Active.

As to `CC(C)=CC/C=C(\C)[C@H]1CC[C@]2(C)[C@@H]1[C@H](O)C[C@@H]1[C@@]3(C)CC[C@H](O)C(C)(C)[C@@H]3[C@@H](O[C@@H]3O[C@H](CO)[C@@H](O)[C@H](O)[C@H]3O[C@@H]3O[C@@H](C)[C@H](O)[C@@H](O)[C@H]3O)C[C@]12C`, the IC50 in the test with HepG2 worked out at 152 µM; in the test on HL-60 it was 82.8 µM. In test [1], the outcome was inactive.

Regarding `C=C(C)[C@@H](O)C/C=C(\C)[C@H]1CC[C@]2(C)[C@@H]1[C@H](O)C[C@@H]1[C@@]3(C)CC[C@H](O[C@@H]4O[C@H](CO)[C@@H](O)[C@H](O)[C@H]4O)C(C)(C)[C@@H]3CC[C@]12C`, the results for the IC50 with HepG2 and in the test on HL-60 were 44.1 µM and 24.8 µM, respectively. Besides, the result in test [1] was Active.

In the case of `CC(C)=CCC[C@@](C)(O)[C@H]1CC[C@]2(C)[C@@H]1[C@H](O)C[C@@H]1[C@@]3(C)CC[C@H](O)C(C)(C)[C@@H]3[C@@H](O)C[C@]12C`, the IC50 stood at 58.3 µM with HepG2 and 28.7 µM in the test on HL-60. Also, the outcome in test [1] was Active.

The values are drawn from ChEMBL document CHEMBL3632501, “New SIRT1 activator from alkaline hydrolysate of total saponins in the stems-leaves of Panax ginseng” (Bioorg Med Chem Lett, 2015).
